# Reference: PubChem BioAssay AID2060345 (Molecular Pharmacology Branch, DTP, NCI, 2025)
# System: MALME-3M multicell spheroids, viability
# Experiment: Anticancer human tumor MALME-3M cell line growth inhibition [TAK];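 further: spheroids exposed to drugs for seven days before readout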;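 on viability, T/C: 100% = DMSO vehicle control viability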
# Conditions: for IC50: curve of first compound; for viability, T/C: stronger effect = lower value
# Source text: Combinatorial screen of targeted agents with TAK-243 and ipatasertib in multi-cell type tumor spheroids
# A high-throughput screen of multi-cell type tumor spheroids was designed to identify active combinations of targeted small molecules and TAK-243 or ipatasertib. Complex spheroids include a stromal component modeled by human endothelial cells (HUVEC) and fibroblasts modeled by human mesenchymal stem cells (MSCs). The concentration ranges selected for each drug and investigational agent were based upon clinically achievable concentrations if the clinical Cmax of the agent was known.
# Compounds. The drugs and investigational agents: TAK-243 (785004), ipatasertib (767898), everolimus (733504), selumetinib (741078), bortezomib (756655), trametinib (758246), ixazomib (758254), vemurafenib (761431), dabrafenib (764134), sapanisertib (764658), alpelisib (765974), and copanlisib (816437), were obtained from the National Cancer Institute (NCI) Developmental Therapeutics Program Chemical Repository. The FDA-approved anticancer drug set is available from the NCI Developmental Therapeutics Program. […] The stock solutions were prepared in dimethyl sulfoxide (DMSO, Sigma-Aldrich, St. Louis, MO, cat. D2650) at 800-fold the tested concentration and stored at -70 degrees C prior to their use. All drugs and investigational agents were tested over a range starting from a high concentration at or near the clinical Cmax and decreasing in half-log increments. If the clinical Cmax for an agent had not been determined, the highest concentration tested was 10 microM.
# NCI60 Cell Culture. NCI60 cell lines were obtained from the NCI Developmental Therapeutics Program Tumor Repository. For each lot of cells, the Repository performed Applied Biosystems AmpFLSTR Identifiler testing with PCR amplification to confirm consistency with the published Identifier STR profile for each cell line. Cells were kept in continuous culture for no more than 20 passages. The optimal seeding densities for each of the cell lines at each time point assessed were determined prior to performing the concentration response studies. Briefly, the NCI60 human tumor lines were grown as monolayers in RPMI 1640 medium supplemented with 10% FBS and 2 mmol/L L-glutamine.
# An additional 2 lines were from the NCI60 cell line panel including melanomas, MALME-3M and SK-MEL-2. Pooled donor human umbilical vein endothelial cells (HUVEC, Lonza, cat. CC-2519) and human mesenchymal stem cells (hMSC, Lonza, cat. PT-2501) were purchased from Lonza (Walkersville, MD).
# PDMR cell lines were grown in complete medium (DC medium): Dulbecco's modified Eagle's medium (DMEM)/F12 supplemented with 5% fetal bovine serum (FBS), 2 mM L-glutamine, 100 U/mL penicillin and 100 µg/ml streptomycin, 0.4 µg/ml hydrocortisone, 10 ng/ml epidermal growth factor (EGF) recombinant human protein, 24 µg/mL adenine, and 0.1 mg/mL primocin. During culture from frozen stock vials, PDMR cells were cultured in the same medium containing 10 µM Y-27632 (see Table 3). The PDCs were cultured in complete DMEM/F12 media without 10 microM Y-27632 dihydrochloride for at least two passages prior to the screen. The pooled donor HUVEC and hMSC were cultured in endothelial cell growth medium 2 (PromoCell, Heidelberg, Germany, cat. C-22011) and mesenchymal stem cell growth medium 2 (PromoCell, cat. C-28009), respectively. For all experiments, HUVEC and hMSC were used at passages </=5.
# For the pre-screen, cell seeding densities were determined from a titration spanning the range from 5,000 to 313 cells per well. The mct-spheroids including 60% malignant cells, 25% HUVEC and 15% MSC dispensed as a mixture into U-bottom Ultra-Low Attachment 384-well plates (Corning, NY)
# High-throughput Drug Combination Screening.
# Prior to their inoculation into 384-well plates, malignant cells, HUVEC, and hMSC were removed from T flasks using TrypLE express (Thermo Fisher Scientific, cat. 12605036) and harvested by centrifugation for 5 min at 233 x g. […]
# [1] = second compound 0.3 µM, first compound 0.00949 µM
# [2] = second compound 0.3 µM, first compound 0.03 µM
# [3] = second compound 0.949 µM, first compound 0.00949 µM
# [4] = second compound 0.949 µM, first compound 0.03 µM
# [5] = second compound 3 µM, first compound 0.00949 µM
# [6] = second compound 3 µM, first compound 0.03 µM
# [7] = second compound 9.49 µM, first compound 0.00949 µM
# [8] = second compound 9.49 µM, first compound 0.03 µM
# [9] = second compound 30 µM, first compound 0.00949 µM
# [10] = second compound 30 µM, first compound 0.03 µM
compound,measurement,setting,value
CC(=O)Nc1cccc(-n2c(=O)n(C3CC3)c(=O)c3c(Nc4ccc(I)cc4F)n(C)c(=O)c(C)c32)c1 + CC(C)NCC(C(=O)N1CCN(c2ncnc3c2C(C)CC3O)CC1)c1ccc(Cl)cc1,IC50,second compound 0.3 µM,0.422 nM
same,IC50,second compound 0.949 µM,0.468 nM
same,IC50,second compound 3 µM,0.251 nM
same,IC50,second compound 9.49 µM,0.181 nM
same,IC50,second compound 30 µM,< 0.0949 nM
same,"viability, T/C","second compound 0.3 µM, first compound 94.9 pM",107%
same,"viability, T/C","second compound 0.3 µM, first compound 0.0003 µM",62.2%
same,"viability, T/C","second compound 0.3 µM, first compound 0.000949 µM",20.4%
same,"viability, T/C","second compound 0.3 µM, first compound 0.003 µM",14.8%
same,"viability, T/C",[1],10.7%
same,"viability, T/C",[2],4.75%
same,"viability, T/C","second compound 0.949 µM, first compound 94.9 pM",99.9%
same,"viability, T/C","second compound 0.949 µM, first compound 0.0003 µM",68.3%
same,"viability, T/C","second compound 0.949 µM, first compound 0.000949 µM",20.4%
same,"viability, T/C","second compound 0.949 µM, first compound 0.003 µM",13.9%
same,"viability, T/C",[3],9.51%
same,"viability, T/C",[4],5.18%
same,"viability, T/C","second compound 3 µM, first compound 94.9 pM",84.4%
same,"viability, T/C","second compound 3 µM, first compound 0.0003 µM",44.2%
same,"viability, T/C","second compound 3 µM, first compound 0.000949 µM",19.2%
same,"viability, T/C","second compound 3 µM, first compound 0.003 µM",11.1%
same,"viability, T/C",[5],7.71%
same,"viability, T/C",[6],2.69%
same,"viability, T/C","second compound 9.49 µM, first compound 94.9 pM",70.4%
same,"viability, T/C","second compound 9.49 µM, first compound 0.0003 µM",33.8%
same,"viability, T/C","second compound 9.49 µM, first compound 0.000949 µM",15.5%
same,"viability, T/C","second compound 9.49 µM, first compound 0.003 µM",10.1%
same,"viability, T/C",[7],4.94%
same,"viability, T/C",[8],1.67%
same,"viability, T/C","second compound 30 µM, first compound 94.9 pM",44.2%
same,"viability, T/C","second compound 30 µM, first compound 0.0003 µM",25%
same,"viability, T/C","second compound 30 µM, first compound 0.000949 µM",10.5%
same,"viability, T/C","second compound 30 µM, first compound 0.003 µM",4.22%
same,"viability, T/C",[9],2.32%
same,"viability, T/C",[10],0.3%
CC(C)CC(NC(=O)C(Cc1ccccc1)NC(=O)c1cnccn1)B(O)O (stereo not given) + CC(C)NCC(C(=O)N1CCN(c2ncnc3c2C(C)CC3O)CC1)c1ccc(Cl)cc1,IC50,second compound 0.3 µM,2.51 nM
same,IC50,second compound 0.949 µM,2.26 nM
same,IC50,second compound 3 µM,2.29 nM
same,IC50,second compound 9.49 µM,1.86 nM
same,IC50,second compound 30 µM,1.05 nM
same,"viability, T/C","second compound 0.3 µM, first compound 31.6 pM",124%
same,"viability, T/C","second compound 0.3 µM, first compound 0.0001 µM",103%
same,"viability, T/C","second compound 0.3 µM, first compound 0.000316 µM",108%
same,"viability, T/C","second compound 0.3 µM, first compound 0.001 µM",122%
same,"viability, T/C","second compound 0.3 µM, first compound 0.00316 µM",33.9%
same,"viability, T/C","second compound 0.3 µM, first compound 0.01 µM",0.71%
same,"viability, T/C","second compound 0.949 µM, first compound 31.6 pM",113%
same,"viability, T/C","second compound 0.949 µM, first compound 0.0001 µM",110%
same,"viability, T/C","second compound 0.949 µM, first compound 0.000316 µM",107%
same,"viability, T/C","second compound 0.949 µM, first compound 0.001 µM",111%
same,"viability, T/C","second compound 0.949 µM, first compound 0.00316 µM",25.4%
same,"viability, T/C","second compound 0.949 µM, first compound 0.01 µM",0.85%
same,"viability, T/C","second compound 3 µM, first compound 31.6 pM",86.4%
same,"viability, T/C","second compound 3 µM, first compound 0.0001 µM",95.8%
same,"viability, T/C","second compound 3 µM, first compound 0.000316 µM",91.2%
same,"viability, T/C","second compound 3 µM, first compound 0.001 µM",91.5%
same,"viability, T/C","second compound 3 µM, first compound 0.00316 µM",33.9%
same,"viability, T/C","second compound 3 µM, first compound 0.01 µM",0.73%
same,"viability, T/C","second compound 9.49 µM, first compound 31.6 pM",81%
same,"viability, T/C","second compound 9.49 µM, first compound 0.0001 µM",87.5%
same,"viability, T/C","second compound 9.49 µM, first compound 0.000316 µM",75.5%
same,"viability, T/C","second compound 9.49 µM, first compound 0.001 µM",83.4%
same,"viability, T/C","second compound 9.49 µM, first compound 0.00316 µM",22.7%
same,"viability, T/C","second compound 9.49 µM, first compound 0.01 µM",0.55%
same,"viability, T/C","second compound 30 µM, first compound 31.6 pM",54.9%
same,"viability, T/C","second compound 30 µM, first compound 0.0001 µM",57.2%
same,"viability, T/C","second compound 30 µM, first compound 0.000316 µM",52%
same,"viability, T/C","second compound 30 µM, first compound 0.001 µM",51.7%
same,"viability, T/C","second compound 30 µM, first compound 0.00316 µM",13.2%
same,"viability, T/C","second compound 30 µM, first compound 0.01 µM",0.96%
Cn1cnc2c(F)c(Nc3ccc(Br)cc3Cl)c(C(=O)NOCCO)cc21 + CC(C)NCC(C(=O)N1CCN(c2ncnc3c2C(C)CC3O)CC1)c1ccc(Cl)cc1,IC50,second compound 0.3 µM,41.1 nM
same,IC50,second compound 0.949 µM,36 nM
same,IC50,second compound 3 µM,36.5 nM
same,IC50,second compound 9.49 µM,17.2 nM
same,IC50,second compound 30 µM,< 9.49 nM
same,"viability, T/C",[1],92.5%
same,"viability, T/C",[2],60.7%
same,"viability, T/C","second compound 0.3 µM, first compound 0.0949 µM",21%
same,"viability, T/C","second compound 0.3 µM, first compound 0.3 µM",19%
same,"viability, T/C","second compound 0.3 µM, first compound 0.949 µM",13.1%
same,"viability, T/C","second compound 0.3 µM, first compound 3 µM",5.91%
same,"viability, T/C",[3],86.2%
same,"viability, T/C",[4],55.6%
same,"viability, T/C","second compound 0.949 µM, first compound 0.0949 µM",23.5%
same,"viability, T/C","second compound 0.949 µM, first compound 0.3 µM",16.7%
same,"viability, T/C","second compound 0.949 µM, first compound 0.949 µM",12%
same,"viability, T/C","second compound 0.949 µM, first compound 3 µM",4.79%
same,"viability, T/C",[5],78.3%
same,"viability, T/C",[6],56.6%
same,"viability, T/C","second compound 3 µM, first compound 0.0949 µM",19.6%
same,"viability, T/C","second compound 3 µM, first compound 0.3 µM",16.3%
same,"viability, T/C","second compound 3 µM, first compound 0.949 µM",9.28%
same,"viability, T/C","second compound 3 µM, first compound 3 µM",3.64%
same,"viability, T/C",[7],66.8%
same,"viability, T/C",[8],33.1%
same,"viability, T/C","second compound 9.49 µM, first compound 0.0949 µM",19.6%
same,"viability, T/C","second compound 9.49 µM, first compound 0.3 µM",12.1%
same,"viability, T/C","second compound 9.49 µM, first compound 0.949 µM",7.13%
same,"viability, T/C","second compound 9.49 µM, first compound 3 µM",2.1%
same,"viability, T/C",[9],47.3%
same,"viability, T/C",[10],31.6%
same,"viability, T/C","second compound 30 µM, first compound 0.0949 µM",13.1%
same,"viability, T/C","second compound 30 µM, first compound 0.3 µM",7.49%
same,"viability, T/C","second compound 30 µM, first compound 0.949 µM",3.66%
same,"viability, T/C","second compound 30 µM, first compound 3 µM",0.52%
